According to the supplement of paper PMC10307832:

Assays:
Experiment in all cases: relative viability (nuclei count vs DMSO), 5 days (fraction); higher = more cells survive
[1] = compound: CC(C)C[C@H](NC(=O)[C@H](CCc1ccccc1)NC(=O)CN1CCOCC1)C(=O)N[C@@H](Cc1ccccc1)C(=O)N[C@@H](CC(C)C)C(=O)[C@@]1(C)CO1 [Carfilzomib] + O=C(CCCCCCC(=O)Nc1ccccc1)NO [Vorinostat] (partner 1 µM)
Outline: (§1)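 Dosing by pin tool came one day after lung cancer cell lines were seeded in 1536-well plates, using either one drug or a fixed anchor-drug dose plus five library-drug doses (not always all listed) in √10 steps. After 5 days, nuclei were counted on 4× images. Relative viability is treated-well nuclei count divided by vehicle-well nuclei count, and values are medians of duplicate plates.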

[2] = compound: C[C@@H](Oc1cc(-c2cnn(C3CCNCC3)c2)cnc1N)c1c(Cl)ccc(F)c1Cl [Crizotinib] + O=C(CCCCCCC(=O)Nc1ccccc1)NO [Vorinostat] (partner 1 µM)
Outline: as §1

[3] = compound: O=C(c1cc(Cc2n[nH]c(=O)c3ccccc23)ccc1F)N1CCN(C(=O)C2CC2)CC1 [Olaparib] + CS(=O)(=O)N1CCN(Cc2cc3nc(-c4cccc5[nH]ncc45)nc(N4CCOCC4)c3s2)CC1 [Pictilisib] (partner 1 µM)
Outline: as §1

[4] = compound: O=C(c1cc(Cc2n[nH]c(=O)c3ccccc23)ccc1F)N1CCN(C(=O)C2CC2)CC1 [Olaparib] + Nc1nc2[nH]cc(CCc3ccc(C(=O)N[C@@H](CCC(=O)O)C(=O)O)cc3)c2c(=O)[nH]1 [Pemetrexed] (partner 0.2 µM)
Outline: as §1

Row | Cell Line | relative viability ([1]; first compound 0.001 µM) | relative viability ([1]; first compound 0.003162 µM) | relative viability ([1]; first compound 0.01 µM) | relative viability ([1]; first compound 0.03162 µM) | relative viability ([1]; first compound 0.1 µM) | relative viability ([2]; first compound 0.01 µM) | relative viability ([2]; first compound 0.03162 µM) | relative viability ([2]; first compound 0.1 µM) | relative viability ([2]; first compound 0.3162 µM) | relative viability ([2]; first compound 1 µM) | relative viability ([3]; first compound 0.08 µM) | relative viability ([3]; first compound 0.253 µM) | relative viability ([3]; first compound 2.53 µM) | relative viability ([3]; first compound 8 µM) | relative viability ([4]; first compound 0.08 µM) | relative viability ([4]; first compound 0.253 µM) | relative viability ([4]; first compound 2.53 µM) | relative viability ([4]; first compound 8 µM)
1 | NCI-H1944 | 0.523 | 0.744 | 0.527 | 0.505 | 0.215 | 0.446 | 0.508 | 0.493 | 0.571 | 0.54 | 0.363 | 0.319 | 0.328 | 0.351 | 0.639 | 0.529 | 0.496 | 0.561
2 | NCI-H1975 | 0.706 | 0.611 | 0.261 | 0.129 | 0.135 | 0.682 | 0.693 | 0.695 | 0.708 | 0.729 | 0.309 | 0.27 | 0.284 | 0.266 | 0.304 | 0.265 | 0.303 | 0.275
3 | NCI-H1993 | 0.631 | 0.804 | 0.876 | 0.366 | 0.288 | 0.699 | 0.901 | 0.68 | 0.468 | 0.555 | 0.827 | 0.839 | 0.719 | 0.869 | 0.622 | 0.658 | 0.627 | 0.556
4 | NCI-H2009 | 0.717 | 0.821 | 0.757 | 0.179 | 0.0653 | 0.707 | 0.723 | 0.63 | 0.756 | 0.76 | 0.996 | 0.71 | 0.693 | 0.475 | 1.15 | 1.03 | 1.01 | 0.842
5 | NCI-H2023 | 0.471 | 0.657 | 0.619 | 0.224 | 0.0546 | 0.573 | 0.8 | 0.568 | 0.453 | 0.621 | 0.286 | 0.195 | 0.245 | 0.275 | 0.215 | 0.231 | 0.241 | 0.156
6 | NCI-H2085 | 0.71 | 0.879 | 0.497 | 0.222 | 0.3 | 0.756 | 0.733 |  | 0.782 | 0.742 | 0.468 | 0.433 | 0.427 | 0.368 | 0.971 | 0.755 | 0.871 | 0.852
7 | NCI-H2087 | 0.474 | 0.601 | 0.225 | 0.0585 | 0.0243 | 0.679 | 0.689 | 0.766 | 0.94 | 0.731 | 0.967 | 0.797 | 0.8 | 0.508 | 0.74 | 0.591 | 0.596 | 0.556
8 | NCI-H2126 | 0.748 | 0.868 | 0.904 | 0.716 | 0.222 | 0.636 | 0.835 | 0.682 | 0.371 |  | 0.544 | 0.504 | 0.513 | 0.556 | 0.743 | 0.649 | 0.663 | 0.681
9 | NCI-H2170 | 0.751 | 0.86 | 0.916 | 0.404 | 0.152 |  | 0.838 | 0.746 | 0.795 | 0.828 | 0.346 | 0.277 | 0.305 | 0.332 | 0.259 | 0.331 | 0.265 | 0.245
10 | NCI-H2228 | 0.728 | 0.657 | 0.468 | 0.101 | 0.0952 | 0.46 | 0.843 | 0.402 | 0.57 | 0.683 | 0.429 | 0.418 | 0.292 | 0.336 | 0.395 | 0.323 | 0.311 | 0.322
11 | NCI-H2347 | 0.712 | 0.53 | 0.432 | 0.352 | 0.303 | 0.551 | 0.606 | 0.671 | 0.534 | 0.536 | 1.28 | 0.557 | 0.683 | 0.547 | 0.474 | 0.476 | 0.435 | 0.397
12 | NCI-H2405 | 0.998 | 1.17 | 1.06 | 0.376 | 0.148 | 0.955 | 1.01 | 1.08 | 0.535 | 0.959 | 0.524 | 0.406 | 0.426 | 0.469 | 1.02 | 0.931 | 1.02 | 1.01
13 | NCI-H3122 | 0.841 | 0.819 | 1.06 | 0.747 | 0.329 | 0.929 | 0.753 | 0.932 | 0.941 | 0.961 | 0.629 | 0.532 | 0.587 | 0.627 | 0.202 | 0.194 | 0.191 | 0.18
14 | PC-3 [JPC-3] | 0.784 | 0.808 | 1.1 | 0.475 | 0.229 | 0.687 | 0.903 | 1.16 |  | 0.71 | 0.857 | 0.592 | 0.712 | 0.673 | 1.1 |  | 1.26 | 1.05
15 | PC-14 | 0.71 | 0.754 | 0.228 | 0.0369 | 0.0418 | 0.632 | 0.792 | 0.693 | 0.608 | 0.784 | 0.872 | 0.59 | 0.601 | 0.466 | 0.131 | 0.14 | 0.135 | 0.139
16 | RERF-LC-KJ | 0.7 | 0.683 | 0.676 | 0.392 | 0.242 | 0.695 | 0.708 | 0.709 | 0.566 | 0.773 | 0.491 | 0.522 | 0.648 | 0.526 | 0.527 | 0.477 | 0.481 | 0.449
17 | SK-LU-1 | 0.772 | 0.864 | 0.533 | 0.219 | 0.198 | 0.73 | 0.727 | 0.71 | 0.801 | 0.761 | 0.608 | 0.569 | 0.602 | 0.353 | 1.12 | 0.865 | 0.866 | 0.635
18 | SK-MES-1 | 1.11 | 1.12 | 1.15 | 0.579 | 0.156 | 0.993 | 1.11 | 1.09 | 0.981 | 1.07 | 0.399 | 0.297 | 0.355 | 0.328 | 0.982 | 0.91 | 0.853 | 0.768
19 | SW 1573 | 0.648 | 1.31 | 0.243 | 0.0435 | 0.041 | 0.824 | 0.947 | 0.729 | 0.55 | 0.671 | 0.526 |  | 0.508 | 0.381 | 0.903 | 0.899 | 0.779 | 0.597
20 | UMC-11 | 0.413 | 0.395 | 0.394 | 0.308 | 0.115 | 0.271 | 0.424 | 0.407 | 0.356 | 0.427 | 0.909 | 0.687 | 0.658 | 0.307 | 0.806 | 0.683 | 0.691 | 0.537
